Results published in patent US4537777A, “A52688 Antibiotics and process for their production” (priority 1983, dated 1985).
Like-named read-outs stand apart in the source and are kept apart here.

Key:
Micrococcus luteus = experiment: standard disc-plate assay; format: cell-based; settings: read-out: Zone Diameters
Bacillus subtilis = experiment: standard disc-plate assay; format: cell-based; settings: read-out: Zone Diameters
[1] = test system: Trichophyton mentagroprophytes; experiment: standard disc-plate assay; format: cell-based; settings: read-out: Zone Diameters
Neurospora crassa = experiment: standard disc-plate assay; format: cell-based; settings: read-out: Zone Diameters
acute toxicity in mice = settings: mouse, in vivo, ip, intraperitoneal, formulated in aqueous PVP, read-out: Intraperitoneal LD50
Text: ^a Compounds formulated in aqueous PVP
^b Route test compound administered

[2] = test system: Bacillus stereothermophilus; experiment: standard disc-plate assay; format: cell-based; settings: read-out: Zone Diameters
Candida albicans = experiment: standard disc-plate assay; format: cell-based; settings: read-out: Zone Diameters
Staphylococcus aureus = experiment: standard disc-plate assay; format: cell-based; settings: read-out: Zone Diameters
[3] = test system: Saccharomyces pastorianus; experiment: standard disc-plate assay; format: cell-based; settings: read-out: Zone Diameters
Mycobacterium avium = experiment: standard disc-plate assay; format: cell-based; settings: read-out: Zone Diameters
Pseudomonas solanacearum = experiment: microbe, parasite or virus in culture; format: cell-based; settings: Ralstonia solanacearum, read-out: Zone Diameters
Pseudomonas aeruginosa = experiment: standard disc-plate assay; format: cell-based; settings: read-out: Zone Diameters
Salmonella gallinarium = experiment: standard disc-plate assay; format: cell-based; settings: read-out: Zone Diameters
Escherichia coli = experiment: standard disc-plate assay; format: cell-based
Method: In Table IX the standard discplate-assay activity of the A52688 factors is summarized. Activity is measured as the diameter (in mm) of the observed zone of inhibition; the diameter of the disc used in each case was 6.35 mm.

Proteus vulgaris = experiment: standard disc-plate assay; format: cell-based; settings: read-out: Zone Diameters
Serratia marcescens = experiment: standard disc-plate assay; format: cell-based; settings: read-out: Zone Diameters
Adenocarcinoma 755 = experiment: murine-transplanted tumor adenocarcinoma 755 in mice; format: in vivo
Method: A52688 factors A, C, D, E, F, G, H, J and K and the specified acyl esters of factors A, C, D, E, G, H, J and K are especially useful as oncolytic agents.
Table X summarizes the results of experiments in which mice bearing the murine-transplanted tumor adenocarcinoma 755 were treated with compounds of this invention. In each test the compound was administered by the intraperitoneal route at specified dose levels. The compound was administered over a ten-day period, either on a daily basis or on days one, five and nine, as indicated.

[4] = conc 0.1 mg/ml, disc 6.35 mm, ^b overgrowth: factor B
[5] = conc 0.1 mg/ml, disc 6.35 mm, ^b overgrowth: factors B, C, F
[6] = conc 0.1 mg/ml, disc 6.35 mm, ^b overgrowth: factor F
[7] = conc 0.1 mg/ml, disc 6.35 mm, read-out: Zone Diameters
[8] = in minimal medium, conc 0.1 mg/ml, disc 6.35 mm, read-out: Zone Diameters
[9] = conc 0.1 mg/ml, disc 6.35 mm, ^b overgrowth: factors A, C, E, F, G
[10] = conc 0.1 mg/ml, disc 6.35 mm, ^b overgrowth: factor C
[11] = 0.25 mg/kg i.p., daily for 10 days
[12] = 0.25 mg/kg i.p., daily for 10 days, of 10 mice tested (9 for factor E)
[13] = 0.50 mg/kg i.p., daily for 10 days
[14] = 0.50 mg/kg i.p., daily for 10 days, of 10 mice tested (8 for factor E)
[15] = 1.00 mg/kg i.p., daily for 10 days
[16] = 1.00 mg/kg i.p., daily for 10 days, of 10 (factor E) or 9 (factor F) mice tested
[17] = read-out: Zone Diameters, conc 0.1 mg/ml, disc 6.35 mm
[18] = read-out: Zone Diameters, in minimal medium, conc 0.1 mg/ml, disc 6.35 mm

SMILES	zone of inhibition at 100 µg/mL (Micrococcus luteus; conc 0.1 mg/ml, disc 6.35 mm) [mm]	zone of inhibition at 100 µg/mL (Bacillus subtilis; conc 0.1 mg/ml, disc 6.35 mm) [mm]	zone of inhibition at 100 µg/mL ([1]; conc 0.1 mg/ml, disc 6.35 mm) [mm]	zone of inhibition at 100 µg/mL (Neurospora crassa; conc 0.1 mg/ml, disc 6.35 mm) [mm]	LD50 (acute toxicity in mice) [mg/kg]	zone of inhibition at 100 µg/mL ([2]; conc 0.1 mg/ml, disc 6.35 mm) [mm]	zone of inhibition at 100 µg/mL (Candida albicans; conc 0.1 mg/ml, disc 6.35 mm) [mm]	zone of inhibition at 100 µg/mL (Staphylococcus aureus; [4]) [mm]	zone of inhibition at 100 µg/mL [3, 5] [mm]	zone of inhibition at 100 µg/mL (Mycobacterium avium; [6]) [mm]	zone of inhibition at 100 µg/mL (Pseudomonas solanacearum) [mm]	zone of inhibition at 100 µg/mL (Pseudomonas aeruginosa; conc 0.1 mg/ml, disc 6.35 mm) [mm]	zone of inhibition at 100 µg/mL (Salmonella gallinarium; conc 0.1 mg/ml, disc 6.35 mm) [mm]	zone of inhibition at 100 µg/mL (Escherichia coli; [7]) [mm]	zone of inhibition at 100 µg/mL (Escherichia coli; [8]) [mm]	zone of inhibition at 100 µg/mL (Proteus vulgaris; [9]) [mm]	zone of inhibition at 100 µg/mL (Serratia marcescens; [10]) [mm]	Percent Tumor Inhibition (Adenocarcinoma 755; [11]) [%]	Toxic Deaths (Adenocarcinoma 755; [12])	Percent Tumor Inhibition (Adenocarcinoma 755; [13]) [%]	further results
O=CNC=Cc1ccc(O)cc1 [Factor B]	22	21	19	24	> 75	21	11	25	14												
[C-]#[N+]C(=CC1=C[C@@H](OC(C)=O)[C@H](O)CC1)C(=CC1CCC(OC(=O)C=C(C)C)CC1)[N+]#[C-] (relative stereo) [Factor H]	27	16	35	33		24	18	20	16	10	18	11	16	15	10	17	10				
[C-]#[N+]C(=Cc1ccc(O)cc1)C(=CC1CCC(OC(=O)C=C(C)C)CC1)[N+]#[C-] (stereo not shown) [Factor D]	26	18	21	22	0.992	21	19	18	13	13	17	13	14	15	11	12	12				
[C-]#[N+]C(=CC1CCC(OC(=O)C=C(C)C)CC1)C(=CC1(OC(C)=O)C=CC(=O)CC1)[N+]#[C-] (stereo not shown) [Factor F]	30	27	20	33	5	27	21	26	22	17	10		11	17		20		51	0	69	Toxic Deaths (Adenocarcinoma 755; [14]): 0; Percent Tumor Inhibition (Adenocarcinoma 755; [15]): 91%; Toxic Deaths (Adenocarcinoma 755; [16]): 2; Percent Tumor Inhibition (Adenocarcinoma 755; 2.00 mg/kg i.p., daily for 10 days): toxic; Toxic Deaths (Adenocarcinoma 755; 2.00 mg/kg i.p., daily for 10 days, of 10 mice tested): 10
[C-]#[N+]C(=CC1=C[C@@H](O)[C@@H](O)CC1)C(=CC1CCC(OC(=O)C=C(C)C)CC1)[N+]#[C-] (relative stereo) [Factor E]					3.54													22	0	74	zone of inhibition at 100 µg/mL (Micrococcus luteus): 24 mm; zone of inhibition at 100 µg/mL (Bacillus subtilis): 29 mm; zone of inhibition at 100 µg/mL (Mycobacterium avium): 15 mm; zone of inhibition at 100 µg/mL [1]: 43 mm; zone of inhibition at 100 µg/mL (Pseudomonas solanacearum; conc 0.1 mg/ml): 24 mm; zone of inhibition at 100 µg/mL (Pseudomonas aeruginosa): 17 mm; zone of inhibition at 100 µg/mL (Neurospora crassa): 34 mm; Toxic Deaths (Adenocarcinoma 755; [14]): 3; Percent Tumor Inhibition (Adenocarcinoma 755; [15]): toxic; Toxic Deaths (Adenocarcinoma 755; [16]): 10; zone of inhibition at 100 µg/mL [2]: 30 mm; zone of inhibition at 100 µg/mL (Salmonella gallinarium): 19 mm; zone of inhibition at 100 µg/mL (Candida albicans): 29 mm; zone of inhibition at 100 µg/mL (Escherichia coli; [17]): 18 mm; zone of inhibition at 100 µg/mL (Escherichia coli; [18]): 16 mm; zone of inhibition at 100 µg/mL (Staphylococcus aureus): 21 mm; zone of inhibition at 100 µg/mL (Proteus vulgaris): 21 mm; zone of inhibition at 100 µg/mL (Serratia marcescens): 17 mm; zone of inhibition at 100 µg/mL [3]: 20 mm
[C-]#[N+]C(=CC1CCC(OC(=O)C=C(C)C)CC1)C(=CC1(OC(C)=O)C=CC(O)CC1)[N+]#[C-] (stereo not shown) [Factor G]	32	30	44	41	7.94	33	35	36	24	10	31	23	23	20	18	27	17				Percent Tumor Inhibition (Adenocarcinoma 755; 0.50 mg/kg i.p., days 1, 5 and 9): 10%; Toxic Deaths (Adenocarcinoma 755; 0.50 mg/kg i.p., days 1, 5 and 9, of 10 mice tested): 0; Percent Tumor Inhibition (Adenocarcinoma 755; 0.70 mg/kg i.p., days 1, 5 and 9): 20%; Toxic Deaths (Adenocarcinoma 755; 0.70 mg/kg i.p., days 1, 5 and 9, of 10 mice tested): 0; Percent Tumor Inhibition (Adenocarcinoma 755; 1.00 mg/kg i.p., days 1, 5 and 9): 54%; Toxic Deaths (Adenocarcinoma 755; 1.00 mg/kg i.p., days 1, 5 and 9, of 10 mice tested): 1; Percent Tumor Inhibition (Adenocarcinoma 755; 1.40 mg/kg i.p., days 1, 5 and 9): 72%; Toxic Deaths (Adenocarcinoma 755; 1.40 mg/kg i.p., days 1, 5 and 9, of 10 mice tested): 6; Percent Tumor Inhibition (Adenocarcinoma 755; 2.00 mg/kg i.p., days 1, 5 and 9): 60%; Toxic Deaths (Adenocarcinoma 755; 2.00 mg/kg i.p., days 1, 5 and 9, of 10 mice tested): 7; Percent Tumor Inhibition (Adenocarcinoma 755; 2.80 mg/kg i.p., days 1, 5 and 9): toxic; Toxic Deaths (Adenocarcinoma 755; 2.80 mg/kg i.p., days 1, 5 and 9, of 10 mice tested): 10
[C-]#[N+]C(=CC1=C[C@@H](O)[C@H](O)CC1)C(=CC1CCC(O)CC1)[N+]#[C-] (relative stereo) [Factor C]					< 2.34													47	0	72	zone of inhibition at 100 µg/mL (Micrococcus luteus): 33 mm; zone of inhibition at 100 µg/mL (Bacillus subtilis): 23 mm; zone of inhibition at 100 µg/mL (Mycobacterium avium): 18 mm; zone of inhibition at 100 µg/mL [1]: 15 mm; zone of inhibition at 100 µg/mL (Pseudomonas solanacearum; conc 0.1 mg/ml): 20 mm; zone of inhibition at 100 µg/mL (Neurospora crassa): 22 mm; Percent Tumor Inhibition (Adenocarcinoma 755; 0.125 mg/kg i.p., daily for 10 days): 60%; Toxic Deaths (Adenocarcinoma 755; 0.125 mg/kg i.p., daily for 10 days, of 10 mice tested): 0; Toxic Deaths (Adenocarcinoma 755; [14]): 5; zone of inhibition at 100 µg/mL [2]: 35 mm; zone of inhibition at 100 µg/mL (Salmonella gallinarium): 38 mm; zone of inhibition at 100 µg/mL (Candida albicans): 16 mm; zone of inhibition at 100 µg/mL (Escherichia coli; [17]): 24 mm; zone of inhibition at 100 µg/mL (Escherichia coli; [18]): 20 mm; zone of inhibition at 100 µg/mL (Staphylococcus aureus): 16 mm; zone of inhibition at 100 µg/mL (Proteus vulgaris): 26 mm; zone of inhibition at 100 µg/mL (Serratia marcescens): 15 mm; zone of inhibition at 100 µg/mL [3]: 15 mm
[C-]#[N+]C(=CC1=C[C@@H](OC)[C@@H](O)CC1)C(=CC1CCC(OC(=O)C=C(C)C)CC1)[N+]#[C-] (relative stereo) [Factor J]																					zone of inhibition at 100 µg/mL (Micrococcus luteus): 29 mm; zone of inhibition at 100 µg/mL (Bacillus subtilis): 19 mm; zone of inhibition at 100 µg/mL (Mycobacterium avium): 14 mm; zone of inhibition at 100 µg/mL [1]: 37 mm; zone of inhibition at 100 µg/mL (Pseudomonas solanacearum; conc 0.1 mg/ml): 21 mm; zone of inhibition at 100 µg/mL (Pseudomonas aeruginosa): 12 mm; zone of inhibition at 100 µg/mL (Neurospora crassa): 36 mm; zone of inhibition at 100 µg/mL [2]: 25 mm; zone of inhibition at 100 µg/mL (Salmonella gallinarium): 17 mm; zone of inhibition at 100 µg/mL (Candida albicans): 22 mm; zone of inhibition at 100 µg/mL (Escherichia coli; [17]): 15 mm; zone of inhibition at 100 µg/mL (Escherichia coli; [18]): 13 mm; zone of inhibition at 100 µg/mL (Staphylococcus aureus): 23 mm; zone of inhibition at 100 µg/mL (Proteus vulgaris): 22 mm; zone of inhibition at 100 µg/mL (Serratia marcescens): 12 mm; zone of inhibition at 100 µg/mL [3]: 19 mm
